Test results as given in the supplement of paper PMC13380429.

Columns and labels:
Settings in all cases: 72 h
HepG2 [1] = experiment: relative viability EC50 (midpoint between 100% and the lowest measured viability); higher = less toxic
Calu-3 [2] = experiment: as above
U2OS [3] = experiment: as above
Vero E6 [4] = experiment: as above
Caco-2 [5] = experiment: as above
HepG2 [6] = experiment: drug sensitivity score (DSS) for viability; higher = more toxic; extreme values may be limits of the assay
Calu-3 [7] = experiment: as above
U2OS [8] = experiment: as above
Vero E6 [9] = experiment: as above
Caco-2 [10] = experiment: as above
HepG2 [11] = experiment: cell viability relative to DMSO; higher = less toxic
Calu-3 [12] = experiment: as above
U2OS [13] = experiment: as above
Vero E6 [14] = experiment: as above
Caco-2 [15] = experiment: as above

Row | Structure (SMILES) | relative viability EC50 (HepG2 [1]) [µM] | relative viability EC50 (Calu-3 [2]) [µM] | relative viability EC50 (U2OS [3]) [µM] | relative viability EC50 (Vero E6 [4]) [µM] | relative viability EC50 (Caco-2 [5]) [µM] | drug sensitivity score (HepG2 [6]) | drug sensitivity score (Calu-3 [7]) | drug sensitivity score (U2OS [8]) | drug sensitivity score (Vero E6 [9]) | drug sensitivity score (Caco-2 [10]) | cell viability (HepG2 [11]; 1 nM) [%] | cell viability (HepG2 [11]; 10 nM) [%] | cell viability (HepG2 [11]; 100 nM) [%] | cell viability (HepG2 [11]; 1000 nM) [%] | cell viability (HepG2 [11]; 10000 nM) [%] | cell viability (Calu-3 [12]; 1 nM) [%] | cell viability (Calu-3 [12]; 10 nM) [%] | cell viability (Calu-3 [12]; 100 nM) [%] | cell viability (Calu-3 [12]; 1000 nM) [%] | cell viability (Calu-3 [12]; 10000 nM) [%] | cell viability (U2OS [13]; 1 nM) [%] | cell viability (U2OS [13]; 10 nM) [%] | cell viability (U2OS [13]; 100 nM) [%] | cell viability (U2OS [13]; 1000 nM) [%] | cell viability (U2OS [13]; 10000 nM) [%] | cell viability (Vero E6 [14]; 1 nM) [%] | cell viability (Vero E6 [14]; 10 nM) [%] | cell viability (Vero E6 [14]; 100 nM) [%] | cell viability (Vero E6 [14]; 1000 nM) [%] | cell viability (Vero E6 [14]; 10000 nM) [%] | cell viability (Caco-2 [15]; 1 nM) [%] | cell viability (Caco-2 [15]; 10 nM) [%] | cell viability (Caco-2 [15]; 100 nM) [%] | cell viability (Caco-2 [15]; 1000 nM) [%] | cell viability (Caco-2 [15]; 10000 nM) [%]
1 | CC(=O)N1CCC(C(=O)N(CCCN2CCC(Cc3ccc(C(N)=O)cc3)CC2)c2ccc(C)c(Cl)c2)CC1 [TAK-220] | > 10 | > 10 | > 10 | > 10 | > 10 | 0 | 0 | 0 | 0 | 0 | 99.9 | 87.2 | 94.1 | 94.5 | 98.6 | 100 | 101 | 98.3 | 101 | 97.9 | 97.3 | 99.3 | 99.4 | 99.9 | 95.3 | 113 | 101 | 106 | 92.4 | 106 | 85.2 | 95.1 | 93.5 | 102 | 98.3
2 | COc1ccsc1CNCC[C@@]1(c2ccccn2)CCOC2(CCCC2)C1 [TRV130] | > 10 | > 10 | > 10 | > 10 | > 10 | 0 | 0 | 0 | 0 | 0 | 105 | 95.6 | 91.9 | 102 | 94.9 | 103 | 96.9 | 101 | 112 | 104 | 103 | 102 | 102 | 96.9 | 100 | 96.9 | 100 | 95.7 | 94.5 | 96.6 | 105 | 104 | 101 | 93 | 97.6
3 | CCCCNc1ncc2c(-c3ccc(CN4CCN(C)CC4)cc3)cn([C@H]3CC[C@H](O)CC3)c2n1 [UNC2025] | 1.02 | 1.75 | 1.21 | 1.16 | 2.62 | 10.5 | 5.7 | 10.5 | 7.2 | 4.3 | 88.6 | 94 | 92 | 54.7 | 5.2 | 98.5 | 99.7 | 100 | 87.1 | 34.2 | 98.4 | 103 | 97 | 60.3 | 0.3 | 95.3 | 101 | 100 | 73.3 | 34.6 | 88.5 | 103 | 97.3 | 95.5 | 33.6
4 | O=C(NCC(=O)N1CCCCC1)Nc1ccc2nnsc2c1 [UNC2327] | > 10 | > 10 | > 10 | > 10 | > 10 | 0 | 0 | 0 | 0 | 0 | 87.1 | 93.7 | 103 | 99.7 | 98.1 | 95 | 97.5 | 90.8 | 103 | 99.3 | 99.9 | 106 | 96.3 | 99.1 | 99.8 | 97.5 | 103 | 98.7 | 101 | 104 | 95.3 | 102 | 95.4 | 105 | 95.4
5 | c1cc2c3c(c1)c1c(n3CCNC2)CCCC1 [WAY-629] | > 10 | > 10 | > 10 | > 10 | > 10 | 0 | 0.1 | 0 | 0 | 0 | 88.5 | 95.4 | 81.1 | 93 | 90.9 | 110 | 83.8 | 104 | 106 | 85.7 | 101 | 100 | 95.3 | 93 | 95.9 | 100 | 99.7 | 102 | 98.8 | 92.4 | 113 | 90.6 | 100 | 90 | 97.1
6 | COC(=O)Nc1ccc(-c2nc(N3CCOCC3)c3cnn(C4CCN(Cc5cccnc5)CC4)c3n2)cc1 [WYE-687] | 0.818 | 0.271 | 1.36 | 0.925 | 0.496 | 10.1 | 14.2 | 8.2 | 6.9 | 11.5 | 97.5 | 111 | 92.8 | 54 | 17.6 | 100 | 95.5 | 79.2 | 37.2 | 20.4 | 104 | 97 | 100 | 74.2 | 19 | 94.2 | 95.9 | 89.3 | 71.3 | 37.6 | 93.6 | 93.9 | 88 | 47.8 | 21.6
7 | CCCC(=O)Nc1ccc(OCC(O)CNC(C)C)c(C(C)=O)c1 (stereo not given) [acebutolol] | > 10 | > 10 | > 10 | > 10 | > 10 | 0 | 0 | 0 | 0 | 0 | 106 | 88.6 | 104 | 88.7 | 104 | 95.3 | 104 | 104 | 117 | 88.5 | 90.4 | 96.3 | 95.2 | 98 | 101 | 88.2 | 96.9 | 93.8 | 81.9 | 95.6 | 102 | 94.8 | 93 | 104 | 96.1
